Like-named read-outs stand apart in the source and are kept apart here.
Legend:
[1] = Thermogravimetric analysis (TGA), thermal stability; type: physicochemical; conditions: neat ILs; single-step degradation; 10 °C/min, nitrogen
Method: Thermal stability and kinetic parameters of the synthesised ILs were investigated using the TA instruments Q500 thermogravimetric analyser (Milan, Italy). A certain amount of sample (4–5 mg) was placed in a platinum pan and heated at 10 °C min^−1 from 40 to 600 °C under a flow of nitrogen (60 mL/min).
Thermogravimetric analyses were performed to evaluate the thermal stability of ILs and PVC/IL blends. Before testing, the samples were subjected to drying cycles in a vacuum stove for 24 h at 50–60 °C, according to the thermal features of ILs, mainly considering their melting points. The ILs C9mimBF4, C10mimBF4, C9mimDMSIP, and C10mimDMSIP, which are liquid at RT, were left to dry at 30 °C for 4–5 h. […] Considering this, the 40–600 °C degradation temperature range was adopted for the subsequent TGA analyses. […] Furthermore, platinum pans and nitrogen as purge gas were used, and the temperature at which 5% weight loss occurred was defined as Tonset, aiming to avoid the decomposition differences due to pan and gas types, as well as the uncertainty from the manual determination of the Tonset tangent point, respectively. Many features can influence the thermal stability of ILs, mainly the coordinating nature of the anion. Indeed, the highly coordinating halide anions (Cl, Br) display a thermal stability lower than that of poor coordinating anions (PF6). The type of cation core influences the thermal stability of ILs, with a decreasing temperature resistance in the following order: pyrrolidinium, imidazolium, pyridinium, and non-cyclic tetra-alkyl ammonium. The increasing alkyl chain length of the imidazolium cation and branching of the alkyl substituents induce a reduction in thermal stability. Furthermore, a decrease in thermal stability is determined by the presence of alkoxylated side chains in methylimidazolium, piperidinium, and pyrrolidinium cations.
As the industrial production of end products usually involves processing methodologies during which undesirable degradation processes could affect materials’ performance, the thermal stability of neat PVC and PVC/IL film blends was analysed. As detailed for TGA analyses of pure ILs, the stability of the PVC/IL blends was determined at heating runs of 10 °C/min from 40 to 600 °C under a nitrogen atmosphere using a platinum pan. These things considered, the temperature at 5% weight loss was considered as Tonset.

[2] = system: MCF7 cancer cells; assay: Direct cytotoxicity test of IL powders, Alamar blue assay; type: cell-based, human; conditions: 24 h of incubation
Method: (§1) Cytotoxicity studies on IL powders were carried out using human dermal fibroblast (HDF) cells (Sigma-Aldrich) and a human breast cancer cell line (MCF7). In addition, ILs loaded in PVC polymer substrates were tested for their cytocompatibility and adhesion properties on the HDF. HDF cells were cultured in 75 cm^2 cell culture flask in Dulbecco’s Modified Eagle’s Medium (DMEM) supplemented with 20% Foetal Bovine Serum (FBS), 1% non-essential amino acid (NEAA), antibiotic solution (streptomycin 100 µg/mL and penicillin 100 U/mL, Sigma Aldrich) and 2 mM L-glutamine. MCF7 cells were grown in DMEM with 10% FBS and the same antibiotics as mentioned above. The cells were maintained in a culture at 37 °C, with 5% CO2 and 95% humidity to achieve a confluent layer. Control cells were cultured in a complete medium without any compounds in tissue culture plates. Before biological testing, the samples were sterilised using a UV light for 2 h.
(§2) A direct cytotoxicity test was used to assess the in vitro cytotoxicity of IL powders. IL powders with different alkyl chains were dissolved in DMEM media to obtain solutions at various concentrations (0.5–1–5 and 10 µg/mL) to determine the best formulation.
(§3) After 24 h of incubation of IL solutions (200 µL) with seeded cells under specific environmental conditions (T = 37 °C, HR = 95%, CO2 = 5%), cell viability was tested using the Alamar blue assay (AbD Serotec, Milan, Italy) following the manufacturer’s instructions.
(§4) In summary, each well received a 200 µL aliquot of Alamar Blue^TM diluted 1:10 in phenol red-free medium and was incubated for 4 h at 37 °C, 5% CO2. Following this, 100 µL of the solution was transferred to a 96-well plate for colorimetric analysis. Wells with no cells were included to account for any background interference from the redox indicator. Optical density was immediately measured using a spectrophotometer (Victor X3, Perkin Elmer, Waltham, MA, USA) at 560 and 595 nm wavelengths. The results were presented as a percentage of cell viability compared to that of the control (cells grown on tissue culture plates).
(§5) Here, the antitumor activity and cytotoxicity of the synthetised imidazolium-based ionic liquids have been determined for breast cancer cells (MCF-7) and healthy human fibroblast (HDF) cells. […] Table 5 reports the IC50 values in µg/mL and µM to make their comparison with the literature data easy.

[3] = system: HDF cells; assay: as above; type: cell-based, human; conditions: 24 h of incubation
Method: as §1, §2, §3, §4, §5

[4] = system: Escherichia coli; assay: MIC/MBC by broth dilution, pure ILs; type: cell-based; conditions: 24 h
From the text: (§6) Within the Di3A (Dipartimento di Agricoltura, Alimentazione e Ambiente, University of Catania, Italy) microbial collection, two Gram-negative strains (Escherichia coli and Pseudomonas fluorescens) and one Gram-positive strain (Listeria monocytogenes) were studied in order to define the potential efficacy of ionic liquids in relation to the different structure of the bacterial cell wall.
(§7) For the pure ILs, the minimal inhibitory concentration (MIC) and minimal bactericidal concentration (MBC) were determined in Nutrient Broth (NB, Oxoid, Basingstoke, UK) medium by broth dilution method, according to the Clinical and Laboratory Standards Institute (CLSI).
(§8) All the bacterial strains were individually grown for 24 h at 35 or 27 °C for P. fluorescens, with shaking. After the incubation period, the cells were collected by centrifugation and re-suspended in sterile NB to obtain a stock culture of 10^9 CFU/mL.
(§9) Tubes containing 5 mL of NB with decreasing concentrations of ILs (1000, 500, 250, 125, 50, 25, 12.5, 5 and 0 µg/mL) were inoculated with each bacterial stock culture at a final concentration of 10^6 CFU/mL.
(§10) Tubes were incubated at 35 or 27 °C in an orbital shaker and evaluated for the viable count of E. coli, P. fluorescens, and L. monocytogenes after 24 h by spread-plating 100 µL of each suspension on Nutrient Agar (NA, Oxoid, Basingstoke, UK) incubated for 24–48 h at 35 or 27 °C.
(§11) In this study, MIC and MBC are expressed in both µg/mL and µM to make the comparison with the literature data easy. Each experiment was performed in triplicate.

[5] = system: Pseudomonas fluorescens; assay: MIC/MBC by broth dilution, pure ILs; type: cell-based; conditions: 24 h, NI = no inhibition at IL maximum concentration used (1000 µM), read-out: MIC
From the text: as §6, §7
All the bacterial strains were individually grown for 24 h at 35 or 27 °C for P. fluorescens, with shaking. After the incubation period, the cells were collected by centrifugation and re-suspended in sterile NB to obtain a stock culture of 10^9 CFU/mL. […]
as §10, §11

[6] = system: Listeria monocytogenes; assay: MIC/MBC by broth dilution, pure ILs; type: cell-based; conditions: 24 h
From the text: as §6, §7, §8, §9, §10, §11

[7] = NI = no inhibition at IL maximum concentration used (1000 µM), read-out: MIC

| Td, maximum degradation temperature [1] | MIC ([4]; 10^6 CFU/mL) | MIC ([6]; 10^6 CFU/mL) | SMILES | IC50 MCF7 ([2]; n = 3) | IC50 ([2]; n = 3, mean ± SD) | IC50 ([3]; n = 3) | IC50 HDF ([3]; n = 3, mean ± SD) | MIC [4, 7] | MIC [5] | IC50 ([2]; Homo sapiens, n = 3) | IC50 ([2]; Homo sapiens, n = 3, mean ± SD) | IC50 ([3]; Homo sapiens, n = 3) | IC50 ([3]; Homo sapiens, n = 3, mean ± SD) | MIC ([4]; 10^6 CFU/mL, read-out: MIC) | MIC ([6]; 10^6 CFU/mL, read-out: MIC) | MIC [6, 7] |
| --- | --- | --- | --- | --- | --- | --- | --- | --- | --- | --- | --- | --- | --- | --- | --- | --- |
| 389.7 °C | 482.59 µg/mL | – | CCCCCCCCC[n+]1ccn(C)c1.COC(=O)c1cc(C(=O)OC)cc(S(=O)(=O)[O-])c1 [C9mimDMSIP] | > 24.13 µg/mL | > 50 µM | 10.3 µM | 4.96 ± 0.05 µg/mL | 1000 µM | – | – | – | – | – | – | – | – |
| 412.2 °C | > 636.88 µg/mL | > 636.88 µg/mL | CCCCCCCCCCCCCCCCCCCCn1cc[n+](C)c1.COC(=O)c1cc(C(=O)OC)cc(S(=O)(=O)[O-])c1 [C20mimDMSIP, 1-eicosyl-3-methylimidazolium 1,3-dimethyl-5-sulfoisophthalate] | 4.71 µg/mL | 7.39 µM | 8.01 µM | 5.10 ± 0.02 µg/mL | – | – | – | – | – | – | – | – | – |

| SMILES | Td, maximum degradation temperature [1] | MIC ([4]; 10^6 CFU/mL) | MIC ([6]; 10^6 CFU/mL) | IC50 MCF7 ([2]; n = 3) | IC50 ([2]; n = 3, mean ± SD) | IC50 ([3]; n = 3) | IC50 HDF ([3]; n = 3, mean ± SD) | MIC [4, 7] | MIC [5] | IC50 ([2]; Homo sapiens, n = 3) | IC50 ([2]; Homo sapiens, n = 3, mean ± SD) | IC50 ([3]; Homo sapiens, n = 3) | IC50 ([3]; Homo sapiens, n = 3, mean ± SD) | MIC ([4]; 10^6 CFU/mL, read-out: MIC) | MIC ([6]; 10^6 CFU/mL, read-out: MIC) | MIC [6, 7] |
| --- | --- | --- | --- | --- | --- | --- | --- | --- | --- | --- | --- | --- | --- | --- | --- | --- |
| CCCCCCCCCCCCCCCCCCCC[n+]1ccn(C)c1.F[B-](F)(F)F [C20mimBF4] | 427.9 °C | – | – | – | – | – | – | > 1000 µM | > 1000 µM | 3.47 µg/mL | 7.71 µM | 5.99 µM | 2.7 ± 0.19 µg/mL | > 450 µg/mL | > 450 µg/mL | > 1000 µM |

Source: paper PMC11125126, “Synthesis, Characterisation, and In Vitro Evaluation of Biocompatibility, Antibacterial and Antitumor Activity of Imidazolium Ionic Liquids” (Pharmaceutics, 2024)
